Data as given in US12029771B2, “Neem for treatment of RLS” (priority 2018, dated 2024).

Tested on: symptoms of restless legs syndrome (RLS)
Assay: Treatment of RLS patient, Case No. 1
Format: in vivo, human
Conditions: L-Dopa treatment before neem

`N[C@@H](Cc1ccc(O)c(O)c1)C(=O)O` [L-Dopa] was tested, and the “symptoms of RLS under exposure to L-Dopa” value was “did not completely cease”.
